From PMC6732362, “Cancer-associated variants of human NQO1: impacts on inhibitor binding and cooperativity” (Bioscience Reports, 2019)

How the values were obtained:
human NQO1 p.R139W [1] = target: T1, human NQO1 p.R139W (Homo sapiens, UniProt P15559, R139W); assay: biochemical
human NQO1 p.R139W [2] = target: T1, human NQO1 p.R139W; assay: Differential scanning fluorimetry (FAD release on thermal denaturation); type: binding; set-up: hexahistidine; made in house; host or cells: Escherichia coli; details: for effect on stability towards thermal denaturation (ΔTm): p.R139W, concentration-dependent
human NQO1 p.P187S = target: T2, human NQO1 p.P187S (Homo sapiens, UniProt P15559, P187S); assay: as above; type: binding
T2 construct: hexahistidine; made in house; host or cells: Escherichia coli
T2 sequence (P15559 whole entry P187S): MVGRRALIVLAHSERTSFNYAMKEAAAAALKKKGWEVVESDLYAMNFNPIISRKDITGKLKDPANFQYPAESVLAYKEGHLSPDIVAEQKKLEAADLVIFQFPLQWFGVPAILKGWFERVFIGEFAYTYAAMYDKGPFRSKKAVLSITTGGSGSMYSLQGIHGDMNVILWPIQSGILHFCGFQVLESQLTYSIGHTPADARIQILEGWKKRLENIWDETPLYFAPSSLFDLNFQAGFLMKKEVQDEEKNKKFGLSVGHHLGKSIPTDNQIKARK

human NQO1 p.R139W [3] = target: T1, human NQO1 p.R139W
human wild-type NQO1 [4] = target: T3, human wild-type NQO1 (Homo sapiens, UniProt P15559); assay: biochemical
T3 sequence (P15559 whole entry): as the sequence (P15559 whole entry P187S) above, with S187P counted along it

human wild-type NQO1 [5] = target: T3, human wild-type NQO1; assay: Differential scanning fluorimetry (FAD release on thermal denaturation); type: binding; set-up: hexahistidine; made in house; host or cells: Escherichia coli; details: for effect on stability towards thermal denaturation (ΔTm): wild-type NQO1, concentration-dependent
human wild-type NQO1 [6] = target: T3, human wild-type NQO1
[7] = wild-type, Dixon and [S]/v plots (data not shown)

T1 sequence (P15559 whole entry R139W): as the sequence (P15559 whole entry P187S) above, with R139W, S187P counted along it

| Ki (human NQO1 p.R139W [1]) [mM] | Kd (human NQO1 p.R139W [2]; p.R139W 2 μM dimer, from ΔTm vs inhibitor concentration, HEPES-OH pH 7.3, read-out: KD,app) [mM] | effect on stability towards thermal denaturation (ΔTm) (human NQO1 p.R139W [2]) | effect on stability towards thermal denaturation (ΔTm) (human NQO1 p.P187S) | Hill coefficient (h) (human NQO1 p.R139W [3]; p.R139W, no additional FAD, 70 μM DCPIP, 300 μM NADH, mean of three Hill plots ± SD) | Ki (human wild-type NQO1 [4]) [mM] | Kd (human wild-type NQO1 [5]; wild-type NQO1 2 μM dimer, from ΔTm vs inhibitor concentration, HEPES-OH pH 7.3, read-out: KD,app) [mM] | effect on stability towards thermal denaturation (ΔTm) (human wild-type NQO1 [5]) | type of inhibition (human wild-type NQO1 [6]; NQO1, Dixon and [S]/v plots) | Hill coefficient (h) (human wild-type NQO1 [6]; wild-type NQO1, no additional FAD, 70 μM DCPIP, 300 μM NADH, mean of three Hill plots ± SD) | type of inhibition with respect to NADH (human NQO1 p.R139W [3]; p.R139W (data not shown)) | type of inhibition with respect to NADPH (human NQO1 p.R139W [3]; p.R139W (data not shown)) | type of inhibition with respect to NADH (human wild-type NQO1 [6]; [7]) | type of inhibition with respect to NADPH (human wild-type NQO1 [6]; [7]) | SMILES |
| --- | --- | --- | --- | --- | --- | --- | --- | --- | --- | --- | --- | --- | --- | --- |
| 13.5 ± 3.22 | 18.2 ± 5.2 | stabilized | no detectable effect | 0.92 ± 0.05 | 14 ± 4.34 | 6 ± 0.9 | stabilized | mixed | 0.91 ± 0.06 |  |  |  |  | NC(=O)c1cccnc1 [Nicotinamide, nicotinamide] |
|  |  | destabilised | destabilised |  | 0.375 ± 0.129 |  | destabilised |  |  | uncompetitive | mixed | mixed | competitive | Oc1ccc(/C=C/c2cc(O)cc(O)c2)cc1 [Resveratrol, resveratrol] |
